Results on 2 compounds are retold here after patent US20130156857A1, “Pharmaceutical Compositions Containing Diacerein” (TWI BIOTECHNOLOGY, INC., priority 2008, published 2013).

Each structure is given as a SMILES string. Converted amounts (≈) assume the structure as drawn. Like-named read-outs stand apart in the source and are kept apart here.

For orientation: solubility means the dissolved amount per volume that the medium holds.

Data set [1] in a line: Solubility and stability pH profile of diacerein at ambient temperature for 48 hours. It is filed as physicochemical. Conditions: for Proportion of Diacerein and its degradants: Diacerein / solubility at 48 h: 48 hours; for solubility at 48 h: thermodynamic from solid, read-out: Total solubility. An excerpt: (§1) The tables below indicate the solubility and stability of diacerein in buffer solutions with different pH values. […] The degradation products including rhein increase at a pH above 5. The poor stability of diacerein in the intestinal environment may result in incomplete absorption and cause poor and variable bioavailability. Moreover, one of the increased degradants in the intestinal environment, rhein, has been suspected to be a major factor in stimulating colon mucosa and results in diarrhea. Accordingly, methods to stabilize diacerein during gastro-intestinal absorption might improve its bioavailability as well as the side effect of diarrhea. The stabilization methods for use with diacerein may include the addition of acidifying or buffering agents or complexation with cyclodextrins.

Data set [2] in a line: Solubility and stability of diacerein at ambient temperature for one hour. Type of data set: physicochemical.
Source text: as §1

For data set [3] the following is noted: cited from earlier work.
For data set [4] the following is noted: in vivo; cited from earlier work.
The conditions of data set [5]: cited from earlier work. This is another data set of the same source.
For data set [6] the following is noted: cited from earlier work. The source holds these as a separate data set.

In the case of `CC(=O)Oc1cccc2c1C(=O)c1c(OC(C)=O)cc(C(=O)O)cc1C2=O` [Diacerein, 4,5-bis(acetyloxy)-9,10-dioxo-2-anthracene carboxylic acid], the “Proportion of Diacerein and its degradants: Diacerein” value in data set [1] (0.01N HCl, final pH 1.98, ambient temperature) came to 100%; in data set [1] (50 mM NaH2PO4, final pH 3.03, ambient temperature), 100%; in data set [1] (50 mM NaH2PO4, final pH 4.17, ambient temperature), 100%; in data set [1] (50 mM NaH2PO4, final pH 5.04, ambient temperature), 60%; in data set [1] (50 mM NaH2PO4, final pH 5.97, ambient temperature) it was 77%; in data set [1] (50 mM NaH2PO4, final pH 6.55, ambient temperature), 45%. Besides, the “Proportion of Diacerein and its degradants: Diacerein” value turned out to be 34% in data set [1] (50 mM NaH2PO4, final pH 6.70, ambient temperature); 100% in data set [1] (0.1N HCl, final pH 1.17, ambient temperature); 90% in data set [1] (Water, final pH 5.79, ambient temperature); 90% in data set [2] (final pH 6.55*); 83% in data set [2] (final pH 6.70*). Besides, the solubility at 48 h in data set [1] (50 mM NaH2PO4 buffer, aqueous buffer, 50 mM NaH2PO4, final pH 3.03, ambient temperature) was 0.35 µg/mL (≈ 0.95 µM); in data set [1] (50 mM NaH2PO4 buffer, aqueous buffer, 50 mM NaH2PO4, final pH 4.17, ambient temperature), 0.43 µg/mL (≈ 1.17 µM); in data set [1] (buffer solution (0.01N HCl), simulated gastric fluid, 0.01N HCl, final pH 1.98, ambient temperature), 0.15 µg/mL (≈ 0.407 µM); in data set [1] (simulated gastric fluid, 0.1N HCl, final pH 1.17, ambient temperature), 0.17 µg/mL (≈ 0.462 µM). The “solubility in buffer solution” value in data set [1] (pH below 4.17) is given as “relatively low”. In addition, the “stability in buffer solution” value in data set [1] (pH below 4.17) is “stable”. In addition, in data set [3], the solubility in water entry is “practically insoluble”. The “conversion before reaching the systemic circulation” value in data set [4] is “entirely converted into rhein”. The Oral bioavailability in data set [5] is reported as 35-56%. In data set [5] (oral, feeding), the bioavailability with feeding is given as 43-70%. The “diarrhea or soft stools occurred in the patients” value in data set [6] (3-year clinical study, diacerein twice a day with meals) is reported as “up to 30%”. For the same compound, the severity of diarrhea entry in data set [6] (occurs within the first two weeks of treatment) was “mild-to-moderate”.
With `O=C(O)c1cc(O)c2c(c1)C(=O)c1cccc(O)c1C2=O` [Rhein], in data set [4], the “conjugated in the liver to rhein glucuronide” value is on record as 60%, the “conjugated in the liver to rhein sulfate” value was 20% and the “eliminated by the renal route” value was 20%.
